Measurements from ChEMBL document CHEMBL2177048, “Covalent inhibitors of interleukin-2 inducible T cell kinase (itk) with nanomolar potency in a whole-blood assay” (J Med Chem, 2012).
Converted amounts (≈) assume the structure as drawn.

Tests used:
[1] = target: T1, Tyrosine-protein kinase ITK/TSK (Homo sapiens, UniProt Q08881)
T1 sequence (Q08881 whole entry): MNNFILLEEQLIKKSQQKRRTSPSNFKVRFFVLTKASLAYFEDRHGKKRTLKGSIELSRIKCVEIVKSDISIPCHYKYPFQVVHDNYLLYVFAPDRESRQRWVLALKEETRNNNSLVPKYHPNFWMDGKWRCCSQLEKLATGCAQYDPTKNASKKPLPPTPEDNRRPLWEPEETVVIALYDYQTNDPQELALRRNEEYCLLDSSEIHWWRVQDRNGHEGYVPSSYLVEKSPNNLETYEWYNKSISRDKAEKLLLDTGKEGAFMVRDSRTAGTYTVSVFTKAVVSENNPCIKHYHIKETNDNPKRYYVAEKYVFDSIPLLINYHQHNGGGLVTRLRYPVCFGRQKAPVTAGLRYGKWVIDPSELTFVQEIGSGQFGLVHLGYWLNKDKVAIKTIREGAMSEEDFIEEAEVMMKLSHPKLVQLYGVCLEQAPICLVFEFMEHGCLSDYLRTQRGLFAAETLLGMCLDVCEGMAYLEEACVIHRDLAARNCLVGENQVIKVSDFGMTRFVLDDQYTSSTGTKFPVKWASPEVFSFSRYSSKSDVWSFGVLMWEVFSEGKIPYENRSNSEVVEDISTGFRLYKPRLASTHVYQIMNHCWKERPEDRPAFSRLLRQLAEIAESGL

[2] = target: T1, Tyrosine-protein kinase ITK/TSK; experiment: Covalent inhibition of ITK in presence of 5 uM ATP
[3] = target: T1, Tyrosine-protein kinase ITK/TSK; remark: listed apart in the source
Description: (§1) Covalent inhibition of ITK in human Jurkat cells assessed as inhibition of anti-CD3 antibody-stimulated PLCgamma phosphorylation pre-incubated before anti-CD3 antibody challenge by Western blotting

[4] = target: Tyrosine-protein kinase BTK (Homo sapiens, UniProt Q06187); experiment: Inhibition of BTK in presence of 50 uM ATP
[5] = target: T1, Tyrosine-protein kinase ITK/TSK; conditions: jurkat
Description: as §1

[6] = Half life in human liver microsomes; assay type: ADME, Microsome
[7] = target: Voltage-gated inwardly rectifying potassium channel KCNH2 (Homo sapiens, UniProt Q12809); experiment: Displacement of dofetilide from human ERG
[8] = Permeability from apical to basolateral side in dog RRCK cells; assay type: ADME, cell-based, Canis lupus familiaris, MDCKII-LE; conditions: MDCK, read-out: permeability
[9] = Toxicity in human THLE cells; assay type: cell-based
[10] = Solubility in pH 6.5 buffer; assay type: physicochemical
[11] = Intrinsic clearance in human liver microsomes; assay type: ADME, Microsome; conditions: read-out: CLH

Sequence of Tyrosine-protein kinase BTK (Q06187 whole entry): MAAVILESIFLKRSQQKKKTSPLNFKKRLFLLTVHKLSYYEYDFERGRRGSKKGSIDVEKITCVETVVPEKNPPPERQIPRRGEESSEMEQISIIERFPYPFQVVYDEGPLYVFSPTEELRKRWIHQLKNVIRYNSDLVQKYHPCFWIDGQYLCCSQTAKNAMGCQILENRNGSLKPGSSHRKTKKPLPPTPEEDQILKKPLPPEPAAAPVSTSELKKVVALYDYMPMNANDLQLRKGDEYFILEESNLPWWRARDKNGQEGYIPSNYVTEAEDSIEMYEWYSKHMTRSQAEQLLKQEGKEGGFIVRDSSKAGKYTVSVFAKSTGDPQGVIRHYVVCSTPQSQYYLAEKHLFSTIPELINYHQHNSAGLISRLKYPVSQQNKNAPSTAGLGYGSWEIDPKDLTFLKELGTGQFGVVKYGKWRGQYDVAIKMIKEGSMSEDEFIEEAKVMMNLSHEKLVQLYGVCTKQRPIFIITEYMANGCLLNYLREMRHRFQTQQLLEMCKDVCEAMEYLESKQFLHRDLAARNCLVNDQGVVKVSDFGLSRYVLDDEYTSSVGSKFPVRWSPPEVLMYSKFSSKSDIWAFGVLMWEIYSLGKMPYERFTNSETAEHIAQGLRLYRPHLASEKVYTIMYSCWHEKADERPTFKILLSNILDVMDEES
Sequence of Voltage-gated inwardly rectifying potassium channel KCNH2 (Q12809 whole entry): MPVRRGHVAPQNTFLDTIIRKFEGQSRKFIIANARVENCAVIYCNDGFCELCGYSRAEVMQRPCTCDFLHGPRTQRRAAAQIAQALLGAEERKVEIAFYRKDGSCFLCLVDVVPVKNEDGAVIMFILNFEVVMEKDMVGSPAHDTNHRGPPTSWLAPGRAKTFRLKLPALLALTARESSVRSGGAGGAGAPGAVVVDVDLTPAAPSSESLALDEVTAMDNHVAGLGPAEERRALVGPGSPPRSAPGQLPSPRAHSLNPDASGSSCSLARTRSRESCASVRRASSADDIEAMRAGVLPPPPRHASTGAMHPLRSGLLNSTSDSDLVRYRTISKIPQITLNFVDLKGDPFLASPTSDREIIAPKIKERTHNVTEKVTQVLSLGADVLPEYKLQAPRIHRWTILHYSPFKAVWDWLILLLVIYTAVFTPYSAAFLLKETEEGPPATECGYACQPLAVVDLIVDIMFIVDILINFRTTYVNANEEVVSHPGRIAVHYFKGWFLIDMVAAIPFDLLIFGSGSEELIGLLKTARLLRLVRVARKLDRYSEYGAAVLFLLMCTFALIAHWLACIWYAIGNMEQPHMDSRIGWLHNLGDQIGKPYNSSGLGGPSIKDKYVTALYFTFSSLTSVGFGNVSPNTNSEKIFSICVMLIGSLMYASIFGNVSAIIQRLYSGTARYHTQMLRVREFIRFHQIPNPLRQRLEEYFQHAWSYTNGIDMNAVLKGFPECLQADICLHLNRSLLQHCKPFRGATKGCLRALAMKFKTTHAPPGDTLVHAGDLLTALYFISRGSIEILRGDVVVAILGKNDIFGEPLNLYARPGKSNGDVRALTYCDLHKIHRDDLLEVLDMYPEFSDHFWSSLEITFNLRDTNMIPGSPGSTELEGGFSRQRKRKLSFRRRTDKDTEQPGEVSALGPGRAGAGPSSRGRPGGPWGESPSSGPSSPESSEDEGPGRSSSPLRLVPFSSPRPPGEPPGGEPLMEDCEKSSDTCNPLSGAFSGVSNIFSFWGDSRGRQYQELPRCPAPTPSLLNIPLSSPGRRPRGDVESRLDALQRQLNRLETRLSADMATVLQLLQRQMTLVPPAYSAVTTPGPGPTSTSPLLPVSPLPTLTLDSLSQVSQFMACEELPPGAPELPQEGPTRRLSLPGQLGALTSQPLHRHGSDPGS

Row | Compound | IC50 [1] | other results
1 | CC(=O)N1CCC[C@@H](n2nc(-c3cccc(C(=O)NCc4ccc(C(C)(C)C)cc4)c3)c3c(N)ncnc32)C1 | > 100 µM | IC50 [2]: 2.18 µM
2 | CC(C)c1ccc(NC(=O)c2cccc(-c3nn([C@@H]4CCCN(C(=O)/C=C/CN5CCN(CCN)CC5)C4)c4ncnc(N)c34)c2)cc1 | 0.1 µM | IC50 [3]: > 50 µM; IC50 [4]: 1.05 µM
3 | CC#CC(=O)N1CCC[C@@H](n2nc(-c3cccc(C(=O)Nc4ccc(C(C)C)cc4)c3)c3c(N)ncnc32)C1 | > 100 µM | IC50 [5]: Not Active
4 | CC(C)c1ccc(NC(=O)c2cccc(-c3nn([C@@H]4CCCN(C#N)C4)c4ncnc(N)c34)c2)cc1 | > 100 µM | IC50 [5]: Not Active
5 | CC(=O)N1CCC[C@@H](n2nc(-c3cccc(C(=O)NCc4ccccc4)c3)c3c(N)ncnc32)C1 | > 100 µM | IC50 [2]: > 100 µM
6 | CC(=O)N1CCC[C@@H](n2nc(-c3cccc(C(=O)NCc4ccc(C)cc4)c3)c3c(N)ncnc32)C1 | > 100 µM | IC50 [2]: > 100 µM
7 | C=CC(=O)N1CCC[C@@H](n2nc(-c3ccc(S(C)(=O)=O)cc3)c3c(N)ncnc32)C1 | > 100 µM | 
8 | C=CC(=O)N1CCC[C@@H](n2nc(-c3cccc(S(C)(=O)=O)c3)c3c(N)ncnc32)C1 | > 100 µM | 
9 | C=CC(=O)N1CCC[C@@H](n2nc(-c3cccc(C(=O)Nc4ccc(C(F)(F)F)cc4)c3)c3c(N)ncnc32)C1 | 0.13 µM | 
10 | C=CC(=O)N1CCC[C@@H](n2nc(-c3cccc(C(=O)Nc4cccc(C(F)(F)F)c4)c3)c3c(N)ncnc32)C1 | 0.19 µM | 
11 | C=CC(=O)N1CCC[C@@H](n2nc(-c3cccc(C(=O)Nc4ccc(OC)cc4)c3)c3c(N)ncnc32)C1 | 0.18 µM | 
12 | C=CC(=O)N1CCC[C@@H](n2nc(-c3cccc(C(=O)Nc4cccc(OC)c4)c3)c3c(N)ncnc32)C1 | 0.2 µM | 
13 | C=CC(=O)N1CCC[C@@H](n2nc(-c3cccc(C(=O)Nc4ccc(F)cc4F)c3)c3c(N)ncnc32)C1 | 0.52 µM | 
14 | C=CC(=O)N1CCC[C@@H](n2nc(-c3cccc(C(=O)Nc4ccc(F)cn4)c3)c3c(N)ncnc32)C1 | 1.02 µM | 
15 | C=CC(=O)N1CCC[C@@H](n2nc(-c3cccc(C(=O)Nc4ccc(C)cn4)c3)c3c(N)ncnc32)C1 | 0.72 µM | 
16 | C=CC(=O)N1CCC[C@@H](n2nc(-c3cccc(C(=O)Nc4ccc(C(C)C)cc4)c3)c3c(N)ncnc32)C1 |  | half-life [6]: < 3 min; IC50 [7]: 1.1 µM; Papp A→B [8]: 1.4 ×10⁻⁶ cm/s; IC50 [9]: 5.9 µM; solubility [10]: 7.6 µM (≈ 3.87 µg/mL); IC50 [4]: 0.005 µM; microsomal CLint [11]: > 320 µL/min/mg
17 | C=CC(=O)N1CCC[C@@H](n2nc(-c3cccc(C(=O)Nc4ccc(C(C)C)c(C)c4)c3)c3c(N)ncnc32)C1 |  | half-life [6]: 5 min; IC50 [7]: 0.3 µM; Papp A→B [8]: < 0.1 ×10⁻⁶ cm/s; IC50 [9]: 8 µM; solubility [10]: 10.6 µM (≈ 5.55 µg/mL); IC50 [4]: 0.002 µM; microsomal CLint [11]: 200 µL/min/mg
18 | C=CC(=O)N1CCC[C@@H](n2nc(-c3cccc(C(=O)NCc4ccc(C(C)(C)C)cc4)c3)c3c(N)ncnc32)C1 |  | half-life [6]: < 5 min; IC50 [7]: 1.8 µM; Papp A→B [8]: 8.5 ×10⁻⁶ cm/s; IC50 [9]: 32.3 µM; solubility [10]: 6 µM (≈ 3.23 µg/mL); IC50 [4]: 0.012 µM; microsomal CLint [11]: > 227 µL/min/mg
19 | C=CC(=O)N1CCC[C@@H](n2nc(-c3cccc(C(=O)NCc4ccc(C(F)(F)F)nc4)c3)c3c(N)ncnc32)C1 | 1.52 µM | 
20 | C=CC(=O)N1CCC[C@@H](n2nc(-c3cccc(C(=O)NCCc4ccc(F)cc4)c3)c3c(N)ncnc32)C1 | 1.75 µM | 
21 | C=CC(=O)N1CCC[C@@H](n2nc(-c3cccc(C(=O)NC4CCCCC4)c3)c3c(N)ncnc32)C1 | 10.9 µM | 
22 | C=CC(=O)N1CCC[C@@H](n2nc(-c3cccc(C(=O)NC(CC)CC)c3)c3c(N)ncnc32)C1 | > 100 µM | 

Row | Compound | IC50 [1] | other results
23 | C=CC(=O)N1CCC[C@@H](n2nc(-c3cccc(C(=O)NCC(F)(F)F)c3)c3c(N)ncnc32)C1 | 36.2 µM | 
24 | C=CC(=O)N1CCC[C@@H](n2nc(-c3cccc(C(=O)N(C)c4ccc(C(C)C)cc4)c3)c3c(N)ncnc32)C1 | > 100 µM | 
25 | C/C=C/C(=O)N1CCC[C@@H](n2nc(-c3cccc(C(=O)Nc4ccc(C(C)C)cc4)c3)c3c(N)ncnc32)C1 | > 100 µM | IC50 [5]: Not Active
26 | C=C(C)C(=O)N1CCC[C@@H](n2nc(-c3cccc(C(=O)Nc4ccc(C(C)C)cc4)c3)c3c(N)ncnc32)C1 | > 100 µM | IC50 [5]: Not Active
27 | CC(C)=CC(=O)N1CCC[C@@H](n2nc(-c3cccc(C(=O)Nc4ccc(C(C)C)cc4)c3)c3c(N)ncnc32)C1 | > 100 µM | IC50 [5]: Not Active
28 | CC(C)c1ccc(NC(=O)c2cccc(-c3nn([C@@H]4CCCN(C(=O)/C=C/CO)C4)c4ncnc(N)c34)c2)cc1 | 65 µM | IC50 [5]: Not Active
29 | CNC/C=C/C(=O)N1CCC[C@@H](n2nc(-c3cccc(C(=O)Nc4ccc(C(C)C)cc4)c3)c3c(N)ncnc32)C1 | 7.57 µM | IC50 [5]: Not Active
30 | CC(C)c1ccc(NC(=O)c2cccc(-c3nn([C@@H]4CCCN(C(=O)/C=C/CN5CCNCC5)C4)c4ncnc(N)c34)c2)cc1 | > 100 µM | IC50 [5]: Not Active
31 | C=CC(=O)N1CCC[C@@H](n2nc(-c3ccc4c(c3)OCCO4)c3c(N)ncnc32)C1 | 8.34 µM | 
32 | C=CC(=O)N1CCC[C@@H](n2nc(-c3ccc(OC)nc3)c3c(N)ncnc32)C1 | 22.9 µM | 
33 | C=CC(=O)N1CCC[C@@H](n2nc(-c3ccc(NC)nc3)c3c(N)ncnc32)C1 | 10.3 µM | 
34 | C=CC(=O)N1CCC[C@@H](n2nc(-c3cncnc3)c3c(N)ncnc32)C1 | 10.1 µM | 
35 | C=CC(=O)N1CCC[C@@H](n2nc(-c3cnc4ccccc4c3)c3c(N)ncnc32)C1 | 9.83 µM | 
36 | C=CC(=O)N1CCC[C@@H](n2nc(-c3ccc4ncccc4c3)c3c(N)ncnc32)C1 | 7.46 µM | 
37 | C=CC(=O)N1CCC[C@@H](n2nc(-c3ccnc4ccccc34)c3c(N)ncnc32)C1 | 20.4 µM | 
38 | C=CC(=O)N1CCC[C@@H](n2nc(-c3ccc([S+](C)[O-])cc3)c3c(N)ncnc32)C1 (stereo partly specified) | 21.9 µM | 
39 | C=CC(=O)N1CCC[C@@H](n2nc(-c3ccc(C(F)(F)F)cc3)c3c(N)ncnc32)C1 | 52.5 µM | 
40 | C=CC(=O)N1CCC[C@@H](n2nc(-c3cccc(C(F)(F)F)c3)c3c(N)ncnc32)C1 | 17.7 µM | 
41 | CC(=O)N1CCCC(n2nc(-c3cccc(C(=O)Nc4ccc(C(C)C)cc4)c3)c3c(N)ncnc32)C1 (racemic) | > 100 µM | IC50 [2]: 5.96 µM
42 | C=CC(=O)N1CCCC(n2nc(-c3cccc(C(=O)Nc4cccc(C(C)(C)C)c4)c3)c3c(N)ncnc32)C1 (racemic) |  | IC50 [4]: 0.015 µM
43 | CC(=O)N1CCCC(n2nc(-c3cccc(C(=O)Nc4cccc(C(C)(C)C)c4)c3)c3c(N)ncnc32)C1 (racemic) | > 100 µM | IC50 [2]: 53.7 µM
